Data as given in patent publication US12305177B2, “Methods and platforms for sustainable high yield terpenoid production” (Purdue Research Foundation, priority 2019, dated 2025).

Legend:
[1] = molecular target: T1, A. thaliana Nudx3 (Arabidopsis thaliana, UniProt Q8L831); assay: Phosphatase activity / steady-state kinetics of recombinant AtNudx3 (BIOMOL Green phosphate detection); format: biochemical; settings: for Km / kcat: substrate of AtNudx3, 100 mM TAPS pH 8.5, 10 mM MgCl2, 37° C., means ± SD, n = 3
T1 construct: His8 (N, cleaved yes); made in house; host or cells: E. coli BL21(DE3)
T1 sequence (Q8L831 1-772): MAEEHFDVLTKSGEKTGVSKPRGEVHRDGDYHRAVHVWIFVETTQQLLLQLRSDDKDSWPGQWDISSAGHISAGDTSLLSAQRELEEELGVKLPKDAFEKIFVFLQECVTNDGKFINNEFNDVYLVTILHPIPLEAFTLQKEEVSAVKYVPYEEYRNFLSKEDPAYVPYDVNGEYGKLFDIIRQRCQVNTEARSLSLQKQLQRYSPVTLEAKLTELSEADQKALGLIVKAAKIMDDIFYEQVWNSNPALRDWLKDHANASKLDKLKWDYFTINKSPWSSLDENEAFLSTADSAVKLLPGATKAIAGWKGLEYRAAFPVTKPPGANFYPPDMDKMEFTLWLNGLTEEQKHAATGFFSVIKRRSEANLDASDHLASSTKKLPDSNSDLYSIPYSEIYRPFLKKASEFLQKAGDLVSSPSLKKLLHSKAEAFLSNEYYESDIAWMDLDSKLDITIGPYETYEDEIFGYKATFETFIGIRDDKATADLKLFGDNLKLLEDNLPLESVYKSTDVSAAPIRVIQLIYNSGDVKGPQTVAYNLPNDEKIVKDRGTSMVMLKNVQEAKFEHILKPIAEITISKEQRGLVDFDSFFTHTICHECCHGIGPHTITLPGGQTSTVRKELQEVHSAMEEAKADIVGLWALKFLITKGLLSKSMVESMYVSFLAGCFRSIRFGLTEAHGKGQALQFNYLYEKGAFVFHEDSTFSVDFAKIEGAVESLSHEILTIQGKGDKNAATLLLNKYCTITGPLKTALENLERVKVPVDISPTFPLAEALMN
Experimental: (§1) After removal of the cell debris by centrifugation, expressed proteins were purified from the supernatants by immobilized metal-affinity chromatography with HisPur Ni-NTA resin (ThermoFisher Scientific). Pure proteins were eluted with 50 mM Tris-HCL pH 8.0, 0.5 M NaCl buffer supplemented with 250 mM imidazole followed by buffer exchange to 50 mM Tris-HCl pH 8.0 and 0.2 M NaCl for storage. For the crystal screening and steady-state kinetic analysis described below, the N-terminal His8-tags of AtNudx1 and AtNudx3 were removed with thrombin and remaining histidine-tagged protein was removed by passing over HisPur Ni-NTA resin. AtNudx1 and AtNudx3 were further purified by size-exclusion chromatography on a Superdex 200 16/60 column (GE Lifesciences) equilibrated and eluted with 50 mM Tris-HCl pH 8.0 supplemented with 0.2 M NaCl and 2 mM dithiothreitol.
(§2) All enzyme assays described in the present disclosure were performed as follows. Phosphatase activity was monitored at 37° C. using BIOMOL Green reagent (Enzo Life Sciences) to detect and quantify released phosphate at 623 nm using a phosphate standard curve. The optimum pH for activity was determined using a three-component buffer system of 50 mM acetic acid, 50 mM MES, and 100 mM Tris-HCl with 0.1 mM IPP as substrate. Magnesium ion dependence was investigated with 1 mM to 20 mM MgCl2. […] Reactions were initiated by the addition of enzyme and quenched by the addition of BIOMOL Green.
(§3) Controls included assays without enzyme and without substrate. All enzyme assays were performed at an appropriate enzyme concentration so that the reaction velocity was linear and proportional to the enzyme concentration during the incubation time period. Kinetic data was fitted using Prism (GraphPad Software) to the Michaelis-Menten equation to compute KM and kcat. At least triplicate assays were performed for all data points. Resulting Findings and Systems, Methods, and Platforms

[2] = molecular target: T2, A. thaliana Nudx1 (Arabidopsis thaliana, UniProt Q9CA40); assay: Phosphatase activity / steady-state kinetics of recombinant AtNudx1 (BIOMOL Green phosphate detection); format: biochemical; settings: for Km / kcat: substrate of AtNudx1, 100 mM TAPS pH 8.5, 10 mM MgCl2, 37° C., means ± SD, n = 3
T2 construct: The open reading frames (ORFs) of Arabidopsis Nudix genes were PCR-amplified from cDNA; His8 (N, cleaved yes); made in house; host or cells: E. coli BL21(DE3)
Experimental: as §1, §2, §3

[3] = tested on: FPP synthase; settings: cited from earlier work
[4] = molecular target: T3, AtPMK (Arabidopsis thaliana, UniProt Q9C6T1); settings: substrate of Arabidopsis PMK (AtPMK, At1g31910); previous characterization; cited from earlier work
T3 sequence (Q9C6T1 1-505): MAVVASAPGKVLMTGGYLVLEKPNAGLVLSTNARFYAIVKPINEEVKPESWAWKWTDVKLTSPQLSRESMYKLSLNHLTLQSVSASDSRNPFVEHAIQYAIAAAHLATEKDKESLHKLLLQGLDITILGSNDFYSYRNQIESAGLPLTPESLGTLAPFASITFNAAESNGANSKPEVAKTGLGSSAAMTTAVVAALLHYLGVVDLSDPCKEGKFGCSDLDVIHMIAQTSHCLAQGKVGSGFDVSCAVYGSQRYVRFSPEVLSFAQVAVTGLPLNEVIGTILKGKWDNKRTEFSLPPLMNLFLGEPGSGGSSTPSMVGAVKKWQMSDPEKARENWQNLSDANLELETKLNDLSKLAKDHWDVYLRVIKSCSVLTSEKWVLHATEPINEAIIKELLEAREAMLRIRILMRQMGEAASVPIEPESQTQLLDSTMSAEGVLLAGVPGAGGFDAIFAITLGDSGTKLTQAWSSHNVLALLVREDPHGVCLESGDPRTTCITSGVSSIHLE

T2 sequence (Q9CA40 whole entry): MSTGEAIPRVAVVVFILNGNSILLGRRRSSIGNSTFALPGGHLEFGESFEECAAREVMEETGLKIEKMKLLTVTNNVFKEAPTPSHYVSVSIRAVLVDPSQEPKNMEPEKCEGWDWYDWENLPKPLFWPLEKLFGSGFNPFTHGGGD

phosphatase activity with the compound as substrate ([1]; AtNudx3) | Km [2] [µM] | kcat [2] [s⁻¹] | Km [1] [µM] | kcat [1] [s⁻¹] | Compound | phosphatase activity with the compound as substrate ([2]; AtNudx1) | other results
unable to dephosphorylate | 33 ± 2 | 4.5 ± 0.1 |  |  | Nc1nc2c([nH]c(=O)n2[C@H]2C[C@H](O)[C@@H](COP(=O)(O)OP(=O)(O)OP(=O)(O)O)O2)c(=O)[nH]1 [8-oxo-dGTP] |  | 
No phosphatase activity was detected |  |  |  |  | CC(C)=CCOP(=O)(O)O [DMAP, dimethylallyl phosphate] | No phosphatase activity was detected | inhibition of FPP synthase [3]: competitively inhibited
No phosphatase activity was detected |  |  |  |  | CC(C)=CCC/C(C)=C/CC/C(C)=C/COP(=O)(O)O [FP, farnesyl phosphate] | No phosphatase activity was detected | 
 | 8 ± 0.6 | 1.11 ± 0.02 | 36 ± 8 | 5.5 ± 0.3 | C=C(C)CCOP(=O)(O)OP(=O)(O)O [IPP, isopentenyl diphosphate] |  | fold higher catalytic efficiency ([1]; AtNudx3, compared to GPP and FPP as substrates): 3 fold; fold lower specific activity at pH 6.5 than at the optimal pH of 8.5 ([2]; AtNudx1, IPP as substrate, 37° C.): 7 fold
 | 240 ± 60 | 0.51 ± 0.06 | 125 ± 36 | 1.5 ± 0.2 | mevalonate diphosphate [(R)-MVAPP] |  | fold less efficient as a substrate (catalytic efficiency) ([2]; AtNudx1, compared with IPP, DMAPP, GPP and FPP): 100 fold

Compound | phosphatase activity with the compound as substrate ([1]; AtNudx3) | Km [2] [µM] | kcat [2] [s⁻¹] | Km [1] [µM] | kcat [1] [s⁻¹] | phosphatase activity with the compound as substrate ([2]; AtNudx1) | other results
CC(C)=CCC/C(C)=C/COP(=O)(O)O [GP, geranyl phosphate] | No phosphatase activity was detected |  |  |  |  | No phosphatase activity was detected | 
CC(C)=CCC/C(C)=C/COP(=O)(O)OP(=O)(O)O [GPP, geranyl diphosphate] |  | 8.3 ± 2.5 | 2.0 ± 0.3 | 53 ± 13 | 2.7 ± 0.3 |  | 
C[C@@](O)(CCOP(=O)(O)O)CC(=O)O [MVAP, phosphomevalonate] | No phosphatase activity was detected |  |  |  |  | No phosphatase activity was detected | Km [4]: 12 µM
